According to patent US9782516B2, “Tissue adhesive coatings for drug coated balloon” (ABBOTT CARDIOVASCULAR SYSTEMS INC., priority 2013, dated 2017):

Columns and labels:
[1] = Percent of dose in the vessel from pure zotarolimus coated coronary balloon with stent (FIG. 2); format: in vivo
Method: FIG. 2 is a graph illustrating percent transfer efficiency as a function of time for pure zotarolimus coatings on a zotarolimus coated balloon.
(§1) With a stent on a coronary balloon, the percent of dose in the vessel from a pure zotarolimus coated balloon was measured at about 30 minutes, 1 day, and 7 days.

[2] = in vivo
[3] = Drug transfer efficiency of drug coated balloons (Table 1); format: in vivo; conditions: balloon 3 × 12 mm, coronary, 20% overstretch, stent present, inflation 30 s, time point 30 minutes
Method: For purpose of explanation, and not limitation, of the disclosed subject matter, reference is now made to a comparative study between paclitaxel and zotarolimus.
as §1

[4] = Percent tissue uptake from paclitaxel coated balloon (FIG. 3); format: in vivo; conditions: porcine coronary arteries, day 1 (24 hours)
whole blood = assay: Acute thrombogenicity of stents in whole blood via the Chandler Loop (FIG. 5); conditions: drug coated stents in whole blood; compared to zotarolimus

Q: Which “percent drug in tissue over time” value ([1]; coronary balloon with stent, measured at about 30 minutes, 1 day and 7 days) does the source give for CO[C@H]1C[C@@H]2CC[C@@H](C)[C@@](O)(O2)C(=O)C(=O)N2CCCC[C@H]2C(=O)O[C@H]([C@H](C)C[C@@H]2CC[C@H](n3cnnn3)[C@H](OC)C2)CC(=O)[C@H](C)/C=C(\C)[C@@H](O)[C@@H](OC)C(=O)[C@H](C)C[C@H](C)/C=C/C=C/C=C/1C [Pure Zotarolimus, zotarolimus] here?
A: rapid decrease in the percent drug in tissue

Q: What about the tissue uptake ([1]; pure zotarolimus coated coronary balloon with stent, 652 μg dose, day 1 (24 hours)) of the same molecule?
A: about 0.56%

Q: What about the “histology evidence of coating fragments adhering to a vessel wall” value [2] of the same molecule?
A: no apparent histology evidence

Q: What about the Percent transfer efficiency ([3]; dose 104 μg/cm^2) of the same molecule?
A: 4.7

Q: And the Percent transfer efficiency ([3]; dose 576 μg/cm^2)?
A: 5.2

Q: With CC(=O)O[C@H]1C(=O)[C@@]2(C)[C@H]([C@H](OC(=O)c3ccccc3)[C@]3(O)C[C@H](OC(=O)[C@H](O)[C@@H](NC(=O)c4ccccc4)c4ccccc4)C(C)=C1C3(C)C)[C@]1(OC(C)=O)CO[C@@H]1C[C@@H]2O [paclitaxel] as the molecule, how does the tissue uptake [4] read?
A: about 2%

Q: And the “acute thrombogenicity as measured by lactate dehydrogenase (LDH)” value (whole blood)?
A: more thrombogenic
